# Source: patent US20250264397A1, “Light-field Flow Cytometer” (Georgia Tech Research Corporation, priority 2024, published 2025)
# System: Jurkat cells
# Experiment: Jurkat cell apoptosis induced by staurosporine (STS) treatment, imaged by light-field flow cytometry (LFC)
# Format: cell-based, human
# Details: 1-μM STS
# Procedure: Jurkat cell apoptosis induced by staurosporine (STS) treatment and staining. Jurkat T cells (e.g., #88042803, Sigma-Aldrich) were cultured in RPMI with 10% FBS and 1% Pen-Strep as a modified RPMI medium at 37° C. and in a 5% CO2 environment. On the imaging day, 1 μM of STS was added to 4 cell dishes, incubating for 30, 60, 120, and 300 min, respectively, at 37° C. The following procedures for preparing cells in the 4 dishes were the same. After the treatment, cells were centrifuged (e.g., 500× g, 6 min, 37° C.) and resuspended into the modified RPMI medium. After two rounds of centrifuge-washing, cells were resuspended into 6 mL of modified RPMI medium. For fluorescence labeling, 250 nM of SYTO16 green stains were added to the culture dish, and the cells were incubated for 1 hour. At the halfway of incubation (30 min), 150 nM of Mito Tracker Deep Red FM stains were added to the culture dish. After another 30 min, cells were centrifuged (e.g., 500× g, 6 min, 37° C.) and resuspended into 6 mL of the 4% PFA fixation buffer. Cells were fixed at room temperature for 12 min. After fixation, cells were centrifuged (800× g, 6 min, room temperature) and resuspended into PBS twice. Finally, cells were stored in PBS for imaging flow cytometry.
# Imaging morphological changes in staurosporine-treated Jurkat cells. […]
structure (smiles),measurement,setting,value
CN[C@@H]1C[C@H]2O[C@@](C)([C@@H]1OC)n1c3ccccc3c3c4c(c5c6ccccc6n2c5c31)C(=O)NC4 [Staurosporine],cells showed apoptotic nuclei,after 5 h of treatment,over 53%
same,Jurkat cell nuclear morphology,"with the treatment period increased (30, 60, 120, 300 min)",reduced volumes and fragmented micronuclei
